Consider four molecules from US10413583B2, “Synthetic substrates for enzymes that catalyze reactions of modified cysteines and related methods” (The University of Chicago, priority 2016, dated 2019).

Each structure is given as a SMILES string.

In the assay the test system is HEPG2 cells. In words: Epifluorescent imaging of DPP-5 and diacetyl rhodol in HepG2 cells (PalmB, ML348, ML349, palmitate). It is filed as cell-based, human. The conditions noted are these: for decrease in intensity of the signal from DPP-5: 10 μM inhibitor. The protocol: 250,000 HEK293T cells/well, 120,000 HeLa cells/well, or 100,000 HepG2 cells/well were plated in 700 μL DMEM glutamax (10% FBS+1% P/S) into 4-well chambered imaging dish (D35C4-20-1.5-N, Cellvis, Mountain View, Calif., United States of America), which were precoated with 5 μg Poly-D-lysine (30-70 KDa, Alfa Aesar, Haverhill, Mass., United States of America) for 2 h. After 20-24 h, the media was replaced by 1 μM Hoechst 33342 and DMSO/5 μM PalmB in 400 μL DMEM glutamax. After 30 min of incubation at 37° C., the cells were washed with 400 μL of Live Cell Imaging Solution and replaced by 1 μM DPP-5 with DMSO or 5 μM of PalmB in Live Cell Imaging Solution. After 20 min of incubation at 37° C., images were obtained on an inverted epifluorescence microscope (Olympus IX83; Olympus Corporation, Tokyo, Japan) attached with EMCCD camera (Photometrics EVOLVE™ Delta, Photometrics, Tucson, Ariz., United States of America) with 40× oil objective (N/A 1.3) for DPP-5 (excitation filter 500/20, dichroic chroma 89007, emission filter 535/30), Hoechst 33342 (excitation filter 402/15, emission filter 455/50, dichroic chroma 89013), and brightfield. Analyses were performed in ImageJ. For data analysis, the average fluorescence intensity per image in each experimental condition was obtained by selecting ROI in Brightfield and applying that to the corresponding DPP-5 image, average background fluorescence intensity was subtracted and data was normalized to the average fluorescence intensity of the DMSO control. Each experiment was repeated in at least two biological replicates with identical results.
16,000 HepG2 cells/well were plated in 100 μL DMEM glutamax (10% fetal bovine serum (FBS)) into 4 wells of a 96-well chambered imaging dish (P96-1-N, Cellvis, Mountain View Calif., United States of America), which were precoated with 0.7 μg Poly-D-lysine (30-70 KDa, Alfa Aesar, Haverhill, Mass., United States of America) for 2 hrs. After 24 h, cells were washed with Live Cell Imaging Solution and replaced by 1 μM Hoechst 33342 and DMSO/10 μM ML348/10 μM ML349/10 μM of both ML348 and ML349 in 100 μL DMEM glutamax. After 30 min of incubation at 37° C., the cells were washed with 100 μL of Live Cell Imaging Solution and replaced by 1 μM DPP-5 in Live Cell Imaging Solution. After 20 min of incubation at 37° C., images were obtained on an inverted epifluorescence microscope (Leica DMi8; Leica Microsystems, Wetzlar, Germany) equipped with a camera (Hamamatsu Orca-Flash 4.0; Hamamatsu, Hamamatsu City, Japan) with 63× oil objective (N/A 1.4) and light source (Sutter Lamda XL, 300 W Xenon; Sutter Instrument, Novato, Calif., United States of America) for DPP-5 (YFP filter cube 1525306), Hoechst 33342 (DAPI filter cube), and brightfield using Leica LASX software (Leica Microsystems, Wetzlar, Germany). Analyses were performed in ImageJ. Each experiment was repeated in three biological replicates and 8-12 images were considered for plotting bar graphs for quantification. For detailed data analysis, the average fluorescence intensity per image in each experimental condition was obtained by selecting ROI in Brightfield and applying that to the corresponding DPP-5 image, average background fluorescence intensity was subtracted and data was normalized to the average fluorescence intensity of the control experiment. […] 250,000 HEK293T cells/well were plated in 700 μL DMEM glutamax (10% FBS+1% P/S) into three wells of a 4-well chambered imaging dish (D35C4-20-1.5-N, Cellvis, Mountain View, Calif., United States of America), which were precoated with 5 μg Poly-Dlysine (30-70 KDa, Alfa Aesar, Haverhill, Mass., United States of America) for 2 h. After 18 h, the media was replaced by 1 μM Hoechst 33342 in 400 μL DMEM glutamax. […] After 20 min of incubation at 37° C., images were obtained and analyzed as described above. […]

With `CCCCCCCCCCCCCCCC(=O)SC[C@@H](C(=O)NC)N(C)C(=O)Oc1ccc2c(c1)Oc1cc(N3CCN(C(=O)CCC(=O)O)CC3)ccc1C21OC(=O)c2ccccc21` (some centres unmarked) [DPP-5], the “probe fluorescent signal in cells” value (1 μM probe for 20 minutes) is reported as “robust intracellular fluorescent signal”.

For `O=C(CN1CCN(C(=O)c2ccco2)CC1)Nc1cc(C(F)(F)F)ccc1Cl` [ML348], under “1 μM DPP-5”, the “decrease in intensity of the signal from DPP-5” value is listed as “about 30%”.

Consider `COc1ccc(N2CCN(C(=O)c3cc4c(s3)-c3ccccc3S(=O)(=O)C4)CC2)cc1` [ML349], for which the “decrease in intensity of the signal from DPP-5” value (1 μM DPP-5) is “no change in signal”.

Turning to `CCCCCCCCCC[C@@H]1C(=O)O[C@H]1CCc1ccc(OC)c(OC)c1` [PalmB, palmostatin B], the “turn-on response of DPP-5 blocked” value (5 μM PalmB pretreatment, 1 μM DPP-5) is given as “more than 95%”. The “effect on DPP-5 signal in palmitate experiment” value (1% BSA with or without 1 mM palmitate, 5 μM PalmB) is given as “reduces the intensity of the DPP-5 signal”.
